Format in all cases: cell membranes
The species entered for experiment [1] is Rattus norvegicus. Put plainly: Binding affinity to mangiferin receptor in rat islet cell membrane stationary phase assessed as ligand-membrane complex by infrared spectroscopic analysis.
For experiment [2], the species on record is Rattus norvegicus. Put plainly: Binding affinity to mangiferin receptor in rat islet cell membrane stationary phase assessed as total active binding sites per islet bed by chromatographic analysis.
A short description of experiment [3]: Binding affinity to mangiferin receptor in rat islet cell membrane stationary phase by chromatographic analysis.

Activity calls are given as the source filed them. The calls are words filed in the database; no cut-off is given here.

A word on the Kd: it is the constant that tells how readily two partners part at equilibrium. A higher Kd goes with lower affinity. On to `O=c1c2cc(O)c(O)cc2oc2cc(O)c([C@@H]3O[C@H](CO)[C@@H](O)[C@H](O)[C@H]3O)c(O)c12` [MANGIFERIN], for which the result in the experiment filed under Rattus norvegicus [1] was Active. Besides, the Activity in the experiment listed under Rattus norvegicus [2] is 22.7 µmol. In addition, the Kd in experiment [3] was 400 nM.

Source of the values: ChEMBL document CHEMBL3046703, “Study of mangiferin-receptor affinity by cell membrane chromatography using rat pancreas” (Med Chem Res, 2012).
